Experimental data from patent US20100029654A1, “CARDIOVASCULAR COMPOSITIONS AND USE OF THE SAME FOR THE TREATMENT OF ALZHEIMER'S DISEASE” (MOUNT SINAI SCHOOL OF MEDICINE, priority 2006, published 2010).
Where a name gives a salt, the structure may show the parent alone. Read-outs that look alike come from different tables or passages of the source.

Key:
[1] = propranolol-HCL detection in brain and plasma (LC-MS); assay type: in vivo, mouse; conditions: Tg2576, 10 mg/kg/day in drinking water, three weeks
Procedure: In this short-term dosing study, Tg2576 mice were treated with propranolol-HCL for three-weeks at a concentration ˜3 fold lower than used for treatment of hypertension (10 mg/kg/day delivered in the drinking water). At the time of sacrifice, emicerebellum (pool from N=3 per group) was homogenized 0.4 M perchloric acid, centrifuged (3,000×g; 15 min), and the […] layer evaporated by heating (Botterblom et al., 1993), while the residual diethyl-ether and acidic aqueous layer was used for analysis. Plasma from propranolol-HCL treated mice (pooled, n=3 per group) was extracted using a modified protocol (Martin et al., 2004) mixing equal volumes of plasma in 0.1% NaOH. Propanolol-HCL was then extracted by ethyl acetate and centrifuged. The acidic […] layers were then dried, samples were analyzed by tandem liquid chromatography—mass spectrometry, and concentration was determined against an internal standard, in a range of quantification of n between 1-1,000 ng/ml.

Aβ1-42 [2] = experiment: Aβ1-42 content in conditioned medium of primary cortico-hippocampal neuron cultures from Tg2576 mice (ELISA; primary and secondary dose-response screening); assay type: cell-based, mouse; conditions: for Ab1-42 (% of ctl) / activity at 100 µM: drug 100 μM; for reducing Aβ1-42: <85% of ctl; for activity at 100 µM: Mus musculus, Neuron, 24 h, read-out: Ab1-42 (% of ctl)
How it was run: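 Primary cortico-hippocampal neurons from embryonic Tg2576 mouse brain were seeded on poly-D-lysine-coated 96-well plates at 1.0×10^5 cells per well in serum-free Neurobasal medium with 2% B27, 0.5 mM L-glutamine and 1% penicillin-streptomycin. For primary screening, duplicate wells received 100 μM drug (1% DMSO final). Vehicle-treated cultures served as controls, and Aβ1-42 in conditioned medium was measured by commercial ELISA.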

Tg2576 mice [3] = experiment: blood pressure (systolic, diastolic, MAP) by tail-cuff; assay type: in vivo, mouse
Procedure: FIG. 1 Tg2576 mice are characterized by normal blood pressure under basal conditions. Baseline measurements of systolic, diastolic blood pressure, and mean arteriole blood pressure (MAP) in ˜11 month old female Tg2576 mice. Strain-, age-, gender-matched WT mice were measured using a commercial blood pressure analysis system designed specifically for small rodents (Hatteras Instruments, NC). Following manufacturer's instruction, mice were temporarily immobilized in a restraining chamber and an inflated tail-cuff wrapped around the tail was used to measure the systolic pressure, diastolic pressure, and MAP. Each blood pressure determination was calculated as the mean of 10 individual measurements per animal (n=6-10 group).
FIG. 6A-C show body weight of mice in response to ˜3 weeks of treatment. […] FIG. 6D-F show the assessment of systolic, diastolic, and MAP blood pressure in Tg2576 mice in response to drug doses below or within the range of those prescribed in hypertension. Blood pressure measurements were conducted using a commercial blood pressure analysis system designed specifically for small rodents (Hatteras Instruments, NC). Following manufacturer's instruction, mice were temporarily immobilized in a restraining chamber and an inflated tail-cuff wrapped around the tail was used to measure pressures. Each blood pressure determination was calculated as the mean of 10 individual measurements per animal. In A-F, values represent mean±SEM values, n=3-5 mice per group. 2-tailed t-test: *P<0.05.
Assessment of blood pressure and glucose utilization. Mouse blood pressure was routinely recorded using a commercial blood pressure analysis system designed specifically for small rodents (Hatteras Instruments, NC). […] Briefly, mice were given a single dose of glucose post-prandially (i.p. 2 g/kg body weight). Blood was collected from the tail-vein periodically over a 2-hour period. Blood glycemic content was assessed using the OneTouch LifeScan System, (LifeScan, Milpitas, Calif.) following the manufacturer's instruction.

Aβ1-42 and Aβ1-40 = Aβ1-42 and Aβ1-40 content in peripheral blood (plasma, serum) by ELISA; assay type: in vivo, mouse; conditions: for plasma Aβ1-42 levels (and Aβ1-40): Tg2576, doses ~3 fold lower than minimal hypertension dose; for plasma Aβ1-42 (and Aβ1-40): Tg2576, within the dosage range prescribed for hypertension
Procedure: (§1) FIG. 7. […] Bar graphs represent group mean±SEM, n=3 mice per group. 2-tailed t-test: *P<0.05.
(§2) Assessment of AD-type amyloid neuropathology in Tg2576 mice. For quantitative assessment of Aβ peptide in the brain, frozen pulverized tissue was homogenized in 5.0 M guanidine buffer, diluted (1:10) in phosphate-buffered saline containing 0.05% (v/v) Tween-20 and 1 mM Pefabloc protease inhibitors (Roche Biochemicals, Indianapolis, Ind.), and centrifuged for 20 min at 4° C. […] Serum Aβ content was analyzed using the same ELISA Kit, following manufacturer instructions.

Aβ peptides = experiment: Aβ peptide profile in the brain by IP-MS; conditions: Tg2576, 10 or 60 mg/Kg/day, 3 weeks
γ-secretase = conditions: Tg2576, propranolol-HCL, neocortex
Procedure: (§3) Brain samples were homogenized in supplied buffers. Homogenate was then added to secretase-specific APP peptide conjugated to the reporter molecules EDANS and DABCYL. […] Cleavage of APP peptide by secretase physically separates the EDANS and DABCYL reporter molecules, allowing for the release of a fluorescent signal. The level of secretase enzymatic activity is proportional to the fluorometric reaction in the homogenate (R & D Systems).

β-secretase = β-secretase (Mus musculus, UniProt P56818); conditions: Tg2576, propranolol-HCL, neocortex
Sequence of β-secretase (P56818 46-501): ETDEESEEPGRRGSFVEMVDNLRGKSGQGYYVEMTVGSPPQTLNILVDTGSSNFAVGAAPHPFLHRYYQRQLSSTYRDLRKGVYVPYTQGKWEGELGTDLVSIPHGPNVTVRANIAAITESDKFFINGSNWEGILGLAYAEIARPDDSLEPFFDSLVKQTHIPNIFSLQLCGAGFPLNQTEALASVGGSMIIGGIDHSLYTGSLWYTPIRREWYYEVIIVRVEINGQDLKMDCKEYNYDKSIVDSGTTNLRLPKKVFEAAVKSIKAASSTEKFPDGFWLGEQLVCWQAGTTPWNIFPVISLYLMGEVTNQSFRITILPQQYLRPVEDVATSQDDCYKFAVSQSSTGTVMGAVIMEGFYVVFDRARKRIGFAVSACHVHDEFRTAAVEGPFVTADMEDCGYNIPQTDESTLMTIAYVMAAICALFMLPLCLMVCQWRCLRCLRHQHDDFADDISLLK
Procedure: as §3

α-secretase = conditions: Tg2576, propranolol-HCL, neocortex
Procedure: as §3

Aβ1-42 [4] = conditions: Tg2576, short-term dosing, subclinical or clinical concentrations
Procedure: Cognitive behavioral function was assessed using the Morris water maze (MWM). After completion of the MWM test, blood pressure measurements were quantified as describe in FIG. 1 legends. Following MWM testing and blood pressure assessment, mice were sacrificed for neuropathological assessment. […] C, (inset), total immunoreactive APP content normalized to β-actin signal. In C-D, bar graphs represent group mean±SEM, n=6-10 mice per group.
as §1, §2

Tg2576 mice [5] = experiment: tolerability: body weight, fluid consumption, glucose tolerance; conditions: for fluid intake: Tg2576, short-term dosing
Aβ1-40 = Aβ1-40 content in conditioned medium of primary cortico-hippocampal neuron cultures from Tg2576 mice (ELISA; primary and secondary dose-response screening); assay type: cell-based, mouse; conditions: for activity at 100 µM: 24 h, read-out: Ab1-40 (% of ctl)
How it was run: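 Primary cortico-hippocampal neurons from embryonic Tg2576 mice were plated at 1.0×10^5 cells per well on poly-D-lysine-coated 96-well plates in Neurobasal with 2% B27, 0.5 mM L-glutamine and 1% penicillin-streptomycin. Cultures received drug in 1% DMSO, and Aβ1-40 in the conditioned medium was measured by BioSource ELISA 24 hours after treatment, relative to vehicle controls.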

Aβ1-42 [6] = experiment: Aβ1-42 content in conditioned medium of primary cortico-hippocampal neuron cultures from Tg2576 mice (ELISA; primary and secondary dose-response screening); assay type: cell-based, mouse; conditions: for activity at 100 µM: 24 h, read-out: Ab1-42 (% of ctl)
[7] = tested on: primary cortico-hippocampal neuron cultures
Procedure: (§4) For in vitro treatments drugs available from “The Spectrum Collection” in stocks of 10 mM in DMSO were applied directly to cultures to the desired concentrations (final 1% DMSO); control primary neuron cultures from Tg2576 embryos were treated with vehicle resulting in a final 1% DMSO.
(§5) Cell viability was assessed using a commercial available LDH assay kit according to the manufacture's instruction (Promega).

[8] = tested on: primary cortico-hippocampal neuron cultures; remark: listed apart in the source
[9] = tested on: primary cortico-hippocampal neuron cultures; experiment: MTT in primary screening
[10] = tested on: primary cortico-hippocampal neuron cultures; experiment: lactate dehydrogenase (LDH) activity assay in parallel neuron cultures
Procedure: as §4, §5

[11] = Primary Screening, table sorted by Aβ1-40
[12] = primary screening, Tg2576 neuron cultures, table sorted by Aβ1-42
[13] = Tg2576, 3 weeks, doses within the range used for hypertension
[14] = Tg2576, 3 weeks, doses ~3 fold below the minimal hypertension dose
[15] = Primary Screening, drug 100 μM, table sorted by Aβ1-40
[16] = Mus musculus, primary screening, drug 100 μM, Tg2576 neuron cultures, table sorted by Aβ1-42
[17] = primary screening, table sorted by Aβ1-42

Compound: CC(C)NCC(O)COc1cccc2ccccc12.Cl (racemic) [Propranolol Hydrochloride (+/−)]
- level in the cerebellum [1]: nM levels
- Ab1-42 (% of ctl) (Aβ1-42 [2]; [11]): 93.4 % of ctl
- Ab1-42 (% of ctl) (Aβ1-42 [2]; [12]): 93.4 % of ctl
- systolic, diastolic, MAP blood pressure (Tg2576 mice [3]; [13]): decreased systolic, diastolic, and MAP blood pressure
- systolic, diastolic, MAP blood pressure (Tg2576 mice [3]; [14]): did not significantly influence either systolic, diastolic or MAP blood pressure
- plasma Aβ1-42 levels (and Aβ1-40) (Aβ1-42 and Aβ1-40): prevented plasma accumulation of Aβ1-42 levels
- plasma Aβ1-42 (and Aβ1-40) (Aβ1-42 and Aβ1-40): lowering responses were found
- Aβ1-34, Aβ1-37, Aβ1-38, Aβ1-39, Aβ1-40 in the brain (IP-MS) (Aβ peptides): dose-dependent reduction of most of the detectable Aβ species
- Aβ1-42 content in the neocortex (IP-MS) (Aβ peptides): dose dependent decrease in Aβ1-42 content
- γ-secretase activity in the brain (γ-secretase): no detectable change
- β-secretase activity in the brain (β-secretase): selective decrease in β-secretase activity
- α-secretase activity in the brain (α-secretase): no detectable change
- steady state levels of Aβ1-42 in hippocampal formation or cerebral cortex (Aβ1-42 [4]): significantly reduced steady state levels of Aβ1-42
- fluid intake (Tg2576 mice [5]): did not significantly influence the amount of fluid intake
- tolerability (body weight) (Tg2576 mice [5]; Tg2576, short-term, 3 weeks, doses ~3 fold below or within hypertension range, drinking water): well-tolerated
- Ab1-40 (% of ctl) (Aβ1-40; [15]): 65.2 % of ctl
- reduced Aβ1-40 (Aβ1-40; primary screening, <85% of ctl): reduced Aβ1-40
- Ab1-40 (% of ctl) (Aβ1-40; primary screening, drug 100 μM, Tg2576 neuron cultures, table sorted by Aβ1-42): 65.2 % of ctl

Compound: CC(=O)[O-].CC(=O)[O-].[Cd+2] [Cadmium Acetate]
- Ab1-42 (% of ctl) (Aβ1-42 [6]): 3.8 % of ctl
- reducing Aβ1-42 (Aβ1-42 [6]): useful in reducing Aβ1-42
- LDH (% of ctl) [7]: 889.8 % of ctl
- MTT (% of ctl) [8]: 29.1 % of ctl
- Ab1-40 (% of ctl) (Aβ1-40): 29.5 % of ctl
- reduced Aβ1-40 (Aβ1-40): reduced Aβ1-40

Compound: Cl.NCCc1ccc(O)c(O)c1 [Dopamine Hydrochloride]
- reducing Aβ1-42 (Aβ1-42 [6]): useful in reducing Aβ1-42
- activity at 100 µM (Aβ1-42 [6]; Mus musculus, Neuron): 78.3%
- LDH (% of ctl) ([7]; Tg2576, mouse): 559.5 % of ctl
- MTT (% of ctl) ([8]; Tg2576, mouse): 95.7 % of ctl
- reduced Aβ1-40 (Aβ1-40): reduced Aβ1-40
- activity at 100 µM (Aβ1-40; Mus musculus, Neuron): 85%

Compound: CC(Cc1ccc(O)cc1)NCC(O)c1cc(O)cc(O)c1 (stereo not drawn) [Fenoterol Hydrobromide]
- Ab1-42 (% of ctl) (Aβ1-42 [2]; [11]): 78.8 % of ctl
- reducing Aβ1-42 (Aβ1-42 [2]; primary screening): useful in reducing Aβ1-42
- activity at 100 µM (Aβ1-42 [6]; [16]): 78.8%
- LDH (% of ctl) ([7]; Tg2576, mouse): 104.3 % of ctl
- MTT (% of ctl) ([8]; Tg2576, mouse): 93.9 % of ctl
- activity at 100 µM (Aβ1-40; [16]): 89.3%
- Ab1-40 (% of ctl) (Aβ1-40; [15]): 89.3 % of ctl

Compound: COC(=O)C1=C(C)NC(C)=C(C(=O)OCCN(C)Cc2ccccc2)C1c1cccc([N+](=O)[O-])c1 (stereo not drawn) [Nicardipine Hydrochloride]
- activity at 100 µM (Aβ1-42 [2]; [11]): 27.6%
- activity at 100 µM (Aβ1-42 [2]; [12]): 27.6%
- reducing Aβ1-42 (Aβ1-42 [2]; primary screening): useful in reducing Aβ1-42
- systolic, diastolic, MAP blood pressure (Tg2576 mice [3]; [13]): decreased systolic, diastolic, and MAP blood pressure
- systolic, diastolic, MAP blood pressure (Tg2576 mice [3]; [14]): did not significantly influence either systolic, diastolic or MAP blood pressure
- systolic, diastolic, MAP blood pressure (Tg2576 mice [3]; Tg2576, any dose 3-18 mg/kg/day): No detectable changes
- EC50 (Aβ1-42 [6]; Mus musculus, Neuron, Table IV, dose-response 0.01-100 μM, read-out: EC50 (M): Ab-lowering activity): 0.000119 M
- MTT (% of ctl) [9, 11]: 52.4 % of ctl
- MTT (% of ctl) [9, 17]: 52.4 % of ctl
- plasma Aβ1-42 levels (and Aβ1-40) (Aβ1-42 and Aβ1-40): prevented plasma accumulation of Aβ1-42 levels
- plasma Aβ1-42 (and Aβ1-40) (Aβ1-42 and Aβ1-40): lowering responses were found
- steady state levels of Aβ1-42 in hippocampal formation or cerebral cortex (Aβ1-42 [4]): significantly reduced steady state levels of Aβ1-42
- fluid intake (Tg2576 mice [5]): did not significantly influence the amount of fluid intake
- LDH (% of ctl) [10, 11]: 104.2 % of ctl
- LDH (at 5F-5 M) ([10]; Table IV): no change
- LDH (% of ctl) [10, 17]: 104.2 % of ctl
- activity at 100 µM (Aβ1-40; Mus musculus, Neuron, Primary Screening, drug 100 μM, table sorted by Aβ1-40): 10.7%
- activity at 100 µM (Aβ1-40; Mus musculus, Neuron, primary screening, drug 100 μM, Tg2576 neuron cultures, table sorted by Aβ1-42): 10.7%
- EC50 (Aβ1-40; Mus musculus, Neuron, Table IV, dose-response 0.01-100 μM, read-out: EC50 (M): Ab-lowering activity Abeta1-40): 3.64e-05 M
- reduced Aβ1-40 (Aβ1-40; primary screening, <85% of ctl): reduced Aβ1-40
